Laboratory results taken from ChEMBL document CHEMBL1201862, “PubChem BioAssay data set” (2004).
Activity calls are given as the source filed them.

What was measured:
Type in all cases: functional
[1] = biological target: T1, Intestinal-type alkaline phosphatase (Homo sapiens, UniProt P09923); experiment: human intestinal alkaline phosphatase activators, dose response, biochemical, luminescence, uHTS hits (AID 463120)
[2] = biological target: T2, Intestinal-type alkaline phosphatase (Mus musculus, UniProt P24822); experiment: PubChem AID 488874
[3] = biological target: T3, Alkaline phosphatase, tissue-nonspecific isozyme (Homo sapiens, UniProt P05186); experiment: activation of tissue-nonspecific alkaline phosphatase – biochemical, TNAP isozyme, human IAP uHTS hits, selectivity assay for human IAP activator project, dose response (AID 488886);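 further: potency of compounds raising TNAP activity as a selectivity check on IAP activators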
T3 sequence (P05186 whole entry): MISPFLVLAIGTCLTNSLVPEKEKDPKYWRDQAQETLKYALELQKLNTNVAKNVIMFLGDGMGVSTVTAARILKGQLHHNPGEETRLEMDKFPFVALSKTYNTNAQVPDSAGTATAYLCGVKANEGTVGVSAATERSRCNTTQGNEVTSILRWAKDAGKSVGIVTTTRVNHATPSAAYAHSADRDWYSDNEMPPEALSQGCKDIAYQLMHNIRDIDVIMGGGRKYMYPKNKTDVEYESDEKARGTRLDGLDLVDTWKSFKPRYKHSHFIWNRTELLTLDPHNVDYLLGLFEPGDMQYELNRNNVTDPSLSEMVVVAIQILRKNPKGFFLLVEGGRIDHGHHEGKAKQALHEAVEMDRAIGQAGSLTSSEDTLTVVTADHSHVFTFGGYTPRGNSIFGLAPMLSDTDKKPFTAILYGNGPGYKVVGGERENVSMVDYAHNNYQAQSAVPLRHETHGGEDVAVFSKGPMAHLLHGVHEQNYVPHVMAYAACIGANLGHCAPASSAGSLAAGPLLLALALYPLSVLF

[4] = biological target: T1, Intestinal-type alkaline phosphatase; experiment: activation of human intestinal alkaline phosphatase – biochemical, luminescent, uHTS hits, set 2, dose response (AID 488817);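 further: potency of activators that raise enzyme activity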
[5] = biological target: T3, Alkaline phosphatase, tissue-nonspecific isozyme; experiment: TNAP enzyme inhibition by screening hits, dose response, selectivity assay for mouse IAP inhibitor project, biochemical, human TNAP, uHTS hits (AID 488906)
[6] = biological target: T1, Intestinal-type alkaline phosphatase; experiment: inhibition of human intestinal alkaline phosphatase – biochemical, dose response (AID 488876)
[7] = biological target: T2, Intestinal-type alkaline phosphatase; experiment: PubChem AID 488785
[8] = biological target: G-protein coupled receptor 55 (Homo sapiens, UniProt Q9Y2T6); experiment: blockers of GPR55 signalling, imaged – imaging, image-based, counter-screen for GPR35 antagonist project, SAR follow-up (AID 2397)
Chain of G-protein coupled receptor 55 (Q9Y2T6 whole entry): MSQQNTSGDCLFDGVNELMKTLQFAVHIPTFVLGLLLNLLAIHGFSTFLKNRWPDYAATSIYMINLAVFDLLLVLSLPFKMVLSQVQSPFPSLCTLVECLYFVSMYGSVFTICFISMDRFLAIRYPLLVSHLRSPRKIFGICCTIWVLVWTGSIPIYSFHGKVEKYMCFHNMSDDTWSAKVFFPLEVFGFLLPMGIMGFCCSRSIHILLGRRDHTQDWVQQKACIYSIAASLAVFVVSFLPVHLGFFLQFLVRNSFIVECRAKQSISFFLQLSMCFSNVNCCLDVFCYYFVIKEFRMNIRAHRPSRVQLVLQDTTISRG

T1 sequence (P09923 whole entry): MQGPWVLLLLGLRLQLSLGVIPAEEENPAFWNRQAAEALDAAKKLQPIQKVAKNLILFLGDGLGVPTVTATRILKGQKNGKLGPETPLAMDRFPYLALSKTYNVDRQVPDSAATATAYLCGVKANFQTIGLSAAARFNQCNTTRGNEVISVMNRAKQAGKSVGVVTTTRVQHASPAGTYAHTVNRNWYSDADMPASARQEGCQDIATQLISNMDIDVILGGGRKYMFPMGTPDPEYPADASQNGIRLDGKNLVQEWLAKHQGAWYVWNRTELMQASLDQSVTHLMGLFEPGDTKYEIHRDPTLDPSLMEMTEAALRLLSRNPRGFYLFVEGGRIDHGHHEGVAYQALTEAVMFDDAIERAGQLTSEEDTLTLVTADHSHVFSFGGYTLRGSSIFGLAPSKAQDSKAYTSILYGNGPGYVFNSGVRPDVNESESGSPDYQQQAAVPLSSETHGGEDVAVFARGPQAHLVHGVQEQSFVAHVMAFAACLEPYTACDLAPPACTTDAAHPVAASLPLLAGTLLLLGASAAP
T2 sequence (P24822 whole entry): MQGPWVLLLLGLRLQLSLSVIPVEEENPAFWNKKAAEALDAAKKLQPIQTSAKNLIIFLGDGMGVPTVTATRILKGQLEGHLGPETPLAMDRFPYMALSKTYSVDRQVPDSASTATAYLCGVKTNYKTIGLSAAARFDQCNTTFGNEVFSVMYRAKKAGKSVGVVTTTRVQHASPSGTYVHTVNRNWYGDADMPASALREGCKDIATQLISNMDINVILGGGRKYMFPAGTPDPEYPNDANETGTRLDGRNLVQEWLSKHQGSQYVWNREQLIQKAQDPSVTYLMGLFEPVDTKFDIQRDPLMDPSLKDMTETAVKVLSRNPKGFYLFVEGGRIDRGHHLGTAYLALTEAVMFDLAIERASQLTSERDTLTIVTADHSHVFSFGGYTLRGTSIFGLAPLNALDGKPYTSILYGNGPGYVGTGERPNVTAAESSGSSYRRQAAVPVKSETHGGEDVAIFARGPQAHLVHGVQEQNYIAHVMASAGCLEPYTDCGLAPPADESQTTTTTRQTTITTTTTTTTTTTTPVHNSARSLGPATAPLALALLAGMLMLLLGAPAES

**Q.** How did the EC50 [1] turn out when `COc1ccc(O)c(/C=N/NC(=S)NCCc2ccccc2)c1` was run?
**A.** 13.1 µM (active)

**Q.** And the IC50 [2]?
**A.** 60.7 µM (active)

**Q.** And the EC50 [3]?
**A.** 26.3 µM (active)

**Q.** And the EC50 [4]?
**A.** 16 µM (active)

**Q.** With `CN(CC(=O)NC(c1ccccc1)c1ccccc1)Cc1nc(O)c2ccccc2n1` as the compound, how does the IC50 [5] read?
**A.** 74.2 µM (active)

**Q.** What about the IC50 [6] of the same compound?
**A.** 26.6 µM (active)

**Q.** What about the IC50 [7] of the same compound?
**A.** 7.93 µM (active)

**Q.** With `CCC(Sc1nc2ccsc2c(=O)n1Cc1ccc(C(=O)O)cc1)C(=O)Nc1ccc(Cl)cc1` (stereo not drawn) as the compound, how does the IC50 [8] read?
**A.** > 32 µM (inactive)
